# Patent US20160038468A1 (priority 2013, published 2016)
# Read-outs that look alike come from different tables or passages of the source.
# Columns and labels:
# Assay type in all cases: cell-based
# [1] = test system: Anaerococcus tetradius; test: Agar dilution MIC (CLSI), Anaerococcus tetradius vaginal isolates; conditions: for MIC: read-out: Minimal Inhibitory Concentration (MIC); for Number of strains with indicated MIC: 21 samples
# [2] = test system: Prevotella timonensis; test: Agar dilution MIC (CLSI), Prevotella timonensis vaginal isolates; conditions: for MIC: read-out: Minimal Inhibitory Concentration (MIC); for Number of strains with indicated MIC: 33 samples
# [3] = test system: Finegoldia magna; test: Agar dilution MIC (CLSI), Finegoldia magna vaginal isolates; conditions: for MIC: read-out: Minimal Inhibitory Concentration (MIC); for Number of strains with indicated MIC: 20 samples
# [4] = test system: Megasphaera-like bacteria; test: Agar dilution MIC (CLSI), Megasphaera-like bacteria vaginal isolates; conditions: for MIC: read-out: Minimal Inhibitory Concentration (MIC); for Number of strains with indicated MIC: 25 samples
# [5] = test system: Mobiluncus spp; test: Agar dilution MIC (CLSI), Mobiluncus spp vaginal isolate; conditions: read-out: Minimal Inhibitory Concentration (MIC)
# [6] = Anaerococcus tetradius, # tested 21
# [7] = Hoylesella timonensis, # tested 33
smiles,measurement,setting,value
CCC[C@@H]1C[C@@H](C(=O)N[C@@H]([C@H]2O[C@H](SC)[C@H](O)[C@@H](O)[C@H]2O)[C@H](C)Cl)N(C)C1 [Clindamycin],MIC,"[1]; Anaerococcus tetradius, isolate 601098V T",2 µg/mL
same,MIC,"[1]; Anaerococcus tetradius, isolate 601103V 21",2 µg/mL
same,MIC,"[1]; Anaerococcus tetradius, isolate 601175V I",1 µg/mL
same,MIC,"[1]; Anaerococcus tetradius, isolate 601202V 11",2 µg/mL
same,MIC,"[1]; Anaerococcus tetradius, isolate 601212V 14",2 µg/mL
same,MIC,"[1]; Anaerococcus tetradius, isolate 601221V 12",0.03 µg/mL
same,MIC,"[1]; Anaerococcus tetradius, isolate 601222V 15",0.25 µg/mL
same,MIC,"[1]; Anaerococcus tetradius, isolate 601242V 17",4 µg/mL
same,MIC,"[1]; Anaerococcus tetradius, isolate 601256V 9",2 µg/mL
same,MIC,"[1]; Anaerococcus tetradius, isolate 601305V J",2 µg/mL
same,MIC,"[1]; Anaerococcus tetradius, isolate 601326V H",2 µg/mL
same,MIC,"[1]; Anaerococcus tetradius, isolate 601340V 25",2 µg/mL
same,MIC,"[1]; Anaerococcus tetradius, isolate 601342V N",2 µg/mL
same,MIC,"[1]; Anaerococcus tetradius, isolate 601368V 42",2 µg/mL
same,MIC,"[1]; Anaerococcus tetradius, isolate 601369V 12",2 µg/mL
same,MIC,"[1]; Anaerococcus tetradius, isolate 601401V T",8 µg/mL
same,MIC,"[1]; Anaerococcus tetradius, isolate 601429V 15",2 µg/mL
same,MIC,"[1]; Anaerococcus tetradius, isolate 601450V 22",1 µg/mL
same,MIC,[1]; Anaerococcus tetradius,> 128 µg/mL
same,MIC50,[1]; [6],2 µg/mL
same,MIC90,[1]; [6],> 128 µg/mL
same,Number of strains with indicated MIC,[1]; MIC 0.03 μg/ml,1
same,Number of strains with indicated MIC,[1]; MIC 8 μg/ml,1
same,Number of strains with indicated MIC,[1]; MIC >[…],3
same,Number of strains with indicated MIC,[1]; MIC […],1
same,Minimal Inhibitory Concentration (MIC),[1]; isolate 601379V 25,>128 µg/mL
same,Minimal Inhibitory Concentration (MIC),[1]; isolate 602375V 22,>128 µg/mL
same,MIC,"[2]; Hoylesella timonensis, isolate 601080 5",0.03 µg/mL
same,MIC,"[2]; Hoylesella timonensis, isolate 601088 15",0.03 µg/mL
same,MIC,"[2]; Hoylesella timonensis, isolate 601093 24",0.03 µg/mL
same,MIC,"[2]; Hoylesella timonensis, isolate 601097 S",0.03 µg/mL
same,MIC,"[2]; Hoylesella timonensis, isolate 601098 B",0.03 µg/mL
same,MIC,"[2]; Hoylesella timonensis, isolate 601167 13",0.06 µg/mL
same,MIC,"[2]; Hoylesella timonensis, isolate 601170 13",0.03 µg/mL
same,MIC,"[2]; Hoylesella timonensis, isolate 601178 19",0.03 µg/mL
same,MIC,"[2]; Hoylesella timonensis, isolate 601194 9B",0.03 µg/mL
same,MIC,"[2]; Hoylesella timonensis, isolate 601245 16",0.03 µg/mL
same,MIC,"[2]; Hoylesella timonensis, isolate 601252 B",0.03 µg/mL
same,MIC,"[2]; Hoylesella timonensis, isolate 601255 17",0.03 µg/mL
same,MIC,"[2]; Hoylesella timonensis, isolate 601266 18",0.03 µg/mL
same,MIC,"[2]; Hoylesella timonensis, isolate 601278 12",0.06 µg/mL
same,MIC,"[2]; Hoylesella timonensis, isolate 601281 22",0.03 µg/mL
same,MIC,"[2]; Hoylesella timonensis, isolate 601287 H",0.03 µg/mL
same,MIC,"[2]; Hoylesella timonensis, isolate 601311 B",0.03 µg/mL
same,MIC,"[2]; Hoylesella timonensis, isolate 601388 S",0.03 µg/mL
same,MIC,"[2]; Hoylesella timonensis, isolate 601429 11",128 µg/mL
same,MIC,"[2]; Hoylesella timonensis, isolate 601459 21",0.03 µg/mL
same,MIC,[2]; Hoylesella timonensis,> 128 µg/mL
same,MIC50,[2]; [7],0.03 µg/mL
same,MIC90,[2]; [7],> 128 µg/mL
same,Number of strains with indicated MIC,[2]; MIC 0.03 μg/ml,17
same,Number of strains with indicated MIC,[2]; MIC 0.06 μg/ml,2
same,Number of strains with indicated MIC,[2]; MIC >[…],13
same,Number of strains with indicated MIC,[2]; MIC […],1
same,Minimal Inhibitory Concentration (MIC),[2]; isolate 301212 10,>128 µg/mL
same,Minimal Inhibitory Concentration (MIC),[2]; isolate 601175 J,>128 µg/mL
same,Minimal Inhibitory Concentration (MIC),[2]; isolate 601214 A,>128 µg/mL
same,Minimal Inhibitory Concentration (MIC),[2]; isolate 601226 C,>128 µg/mL
same,Minimal Inhibitory Concentration (MIC),[2]; isolate 601234 B,>128 µg/mL
same,Minimal Inhibitory Concentration (MIC),[2]; isolate 601293 13,>128 µg/mL
same,Minimal Inhibitory Concentration (MIC),[2]; isolate 601367 E,>128 µg/mL
same,Minimal Inhibitory Concentration (MIC),[2]; isolate 601370 13,>128 µg/mL
same,Minimal Inhibitory Concentration (MIC),[2]; isolate 601401 J,>128 µg/mL
same,Minimal Inhibitory Concentration (MIC),[2]; isolate 601411 S,>128 µg/mL
same,Minimal Inhibitory Concentration (MIC),[2]; isolate 601414 O,>128 µg/mL
same,Minimal Inhibitory Concentration (MIC),[2]; isolate 601422 39,>128 µg/mL
same,Susceptible,"[2]; number (%) of isolates, # tested 33",19 (58) μg/ml
same,Resistant,"[2]; number (%) of isolates, # tested 33, resistance: rifaximin >32, metronidazole >32, clindamycin >8 μg/ml",14 (42) μg/ml
same,MIC,"[3]; Finegoldia magna, isolate 301303V D",8 µg/mL
same,MIC,"[3]; Finegoldia magna, isolate 601205V 39",8 µg/mL
same,MIC,"[3]; Finegoldia magna, isolate 601275V c",128 µg/mL
same,MIC,"[3]; Finegoldia magna, isolate 601276V 23",0.5 µg/mL
same,MIC,"[3]; Finegoldia magna, isolate 601283V 14",4 µg/mL
same,MIC,"[3]; Finegoldia magna, isolate 601295V 25",0.25 µg/mL
same,MIC,"[3]; Finegoldia magna, isolate 601298V 30",128 µg/mL
same,MIC,"[3]; Finegoldia magna, isolate 601308V 24",0.25 µg/mL
same,MIC,"[3]; Finegoldia magna, isolate 601315V 17",4 µg/mL
same,MIC,"[3]; Finegoldia magna, isolate 601315V 17A",4 µg/mL
same,MIC,"[3]; Finegoldia magna, isolate 601320V 24",0.5 µg/mL
same,MIC,"[3]; Finegoldia magna, isolate 601323V K",0.25 µg/mL
same,MIC,"[3]; Finegoldia magna, isolate 601330V c",0.25 µg/mL
same,MIC,"[3]; Finegoldia magna, isolate 601335V c1",0.5 µg/mL
same,MIC,"[3]; Finegoldia magna, isolate 601340V 27",0.25 µg/mL
same,MIC,"[3]; Finegoldia magna, isolate 601359V c",0.25 µg/mL
same,MIC,"[3]; Finegoldia magna, isolate 601363V 6",0.03 µg/mL
same,MIC,"[3]; Finegoldia magna, isolate 601367V c",0.5 µg/mL
same,MIC,[3]; Finegoldia magna,> 128 µg/mL
same,MIC50,"[3]; Finegoldia magna, # tested 20",0.5 µg/mL
same,MIC90,"[3]; Finegoldia magna, # tested 20",128 µg/mL
same,Number of strains with indicated MIC,[3]; MIC 0.03 μg/ml,1
same,Number of strains with indicated MIC,[3]; MIC 8 μg/ml,2
same,Number of strains with indicated MIC,[3]; MIC >[…],2
same,Minimal Inhibitory Concentration (MIC),[3]; isolate 601214V F,>128 µg/mL
same,MIC,"[4]; 427510 h, isolate 427507 H",0.03 µg/mL
same,MIC50,[4]; # tested 25,0.03 µg/mL
same,MIC90,[4]; # tested 25,0.03 µg/mL
same,MIC Range,[4]; # tested 25,0.03 to 0.125 µg/mL
same,Number of strains with indicated MIC,[4]; MIC 0.03 μg/ml,24
same,Number of strains with indicated MIC,[4]; MIC […],1
same,MIC,[4]; isolate 426749 T,0.03 µg/mL
same,MIC,[4]; isolate 426766 Q,0.03 µg/mL
same,MIC,[4]; isolate 426788 8a,0.03 µg/mL
same,MIC,[4]; isolate 426788 C,0.03 µg/mL
same,MIC,[4]; isolate 427470 10,0.03 µg/mL
same,MIC,[4]; isolate 427490 2u,0.03 µg/mL
same,MIC,[4]; isolate 427509 A,0.125 µg/mL
same,MIC,[4]; isolate 427522 8,0.03 µg/mL
same,MIC,[4]; isolate 600770 O,0.03 µg/mL
same,MIC,[4]; isolate 600790 N,0.03 µg/mL
same,MIC,[4]; isolate 600796 V,0.03 µg/mL
same,MIC,[4]; isolate 600831 9,0.03 µg/mL
same,MIC,[4]; isolate 600837 18,0.03 µg/mL
same,MIC,[4]; isolate 600861 P,0.03 µg/mL
same,MIC,[4]; isolate 602236 E3,0.03 µg/mL
same,MIC,[4]; isolate 602241 D,0.03 µg/mL
same,MIC,[4]; isolate 602241 F,0.03 µg/mL
same,MIC,[4]; isolate 602270 A,0.03 µg/mL
same,MIC,[4]; isolate 602282 I,0.03 µg/mL
same,MIC,[4]; isolate 602288 16,0.03 µg/mL
same,MIC,[4]; isolate 602302 22,0.03 µg/mL
same,MIC,[4]; isolate 602305 I,0.03 µg/mL
same,MIC,[4]; isolate 602324 8,0.03 µg/mL
same,MIC,[4]; isolate 602672 12A,0.03 µg/mL
same,MIC,[5],4 µg/mL
